Each structure is given as a SMILES string.

The target in this test is T1, glucokinase (GK) (Homo sapiens, UniProt P35557).
T1 construct: I.D. No. 1 corresponds to residues 13-466 of glucokinase; made in house; host or cells: E. coli DH10b-T1r
T1 sequence (P35557 with tags, fused parts or gaps isoform P35557-2): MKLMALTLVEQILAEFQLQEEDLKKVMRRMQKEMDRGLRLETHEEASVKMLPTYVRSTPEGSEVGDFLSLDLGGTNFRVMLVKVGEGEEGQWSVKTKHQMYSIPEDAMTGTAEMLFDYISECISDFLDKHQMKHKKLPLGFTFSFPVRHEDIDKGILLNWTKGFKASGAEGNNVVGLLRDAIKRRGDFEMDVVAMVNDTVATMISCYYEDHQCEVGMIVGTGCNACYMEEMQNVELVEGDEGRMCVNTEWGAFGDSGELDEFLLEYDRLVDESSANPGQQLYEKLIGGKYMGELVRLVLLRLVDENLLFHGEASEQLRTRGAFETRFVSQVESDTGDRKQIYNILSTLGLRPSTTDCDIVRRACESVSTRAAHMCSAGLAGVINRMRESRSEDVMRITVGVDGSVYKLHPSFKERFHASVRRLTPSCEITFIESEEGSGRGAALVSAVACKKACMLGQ
The experiment in a line: enzymatic glucokinase activity assay (ATP consumption, KinaseGlo luminescence). The class given is biochemical. The conditions noted are these: recombinant GK; 5 μM ATP, 5 mM Glucose, 2% DMSO, 60 min at room temperature; Kact = concentration giving 50% of the maximal increase in GK activity; read-out: pKact. An excerpt: The activity of compounds as glucokinase activators may be assayed in vitro, in vivo or in a cell line. Provided below is an enzymatic glucokinase activity assay.
Purified glucokinase may be obtained as follows. DNA encoding residues 12-465 of the full-length sequence of the human enzyme may be amplified by PCR and cloned into the HindIII and EcoRI sites of pFLAG-CTC (Sigma). SEQ. I.D. No. 1 corresponds to residues 13-466 of glucokinase.
The expression of recombinant glucokinase protein may be carried out by transformation and growth of DH10b-T1r E. coli cells incorporating the (pFLAG-CTC) plasmid in LB media. Protein expression can be induced in this system by the addition of IPTG to the culture medium.
Recombinant protein may be isolated from cellular extracts by passage over Sepharose Q Fast Flow resin (Pharmacia). This partially purified GK extract may then be further purified by a second passage over Poros HQ10 (Applied Biosystems). The purity of GK may be determined on denaturing SDS-PAGE gel. Purified GK may then be concentrated to a final concentration of 20.0 mg/ml. After flash freezing in liquid nitrogen, the proteins can be stored at −78° C. in a buffer containing 25 mM TRIS-HCl pH 7.6, 50 mM NaCl, and 0.5 mM TCEP.
The activation properties of compounds for GK may be determined using a black 384-well-plate format under the following reaction conditions: 25 mM Hepes pH 7.2, 25 mM NaCl, 10 mM MgCl2, 0.01% Brij35, 1 mM DTT, 5 μM ATP, 5 mM Glucose 2% DMSO. The amount of ATP consumed may be determined quantitatively by addition of equal volume of luciferase reagent (luciferase+beetle luciferin—KinaseGlo Luminescent Kinase Assay kit from Promega). The luminescence intensity may be measured by using the Analyst HT from LJL Biosystems.
The assay reaction may be initiated as follows: 4 μl of substrate mixture (12.5 μM ATP and 12.5 mM Glucose) was added to each well of the plate, followed by the addition of 2 μl of activator (2 fold serial dilutions for 11 data points for each activator) containing 10% DMSO. 4 μL of 1.25 nM GK solution may be added to initiate the reaction. The reaction mixture may then be incubated at room temperature for 60 min, and quenched and developed by addition of 10 μL of luciferase reagent. Luminescence intensities of the resulting reaction mixtures may be measured after a 10 min incubation at room temperature. The luminescence intensity may be measured by using the Analyst HT from LJL Biosystems.
pKact and % ACTmax values may be calculated by non-linear curve fitting of the compound concentrations and luminescence intensities to a standard inhibition/activation equation.
A general note: Kinase-Glo measures the ATP left after a reaction by luminescence.
Take `COc1ccccc1-c1nnc(SCC(=O)Nc2ccc(C)c(C)c2)[nH]1`: the EC50 is ≤ 2000 nM. Consider `Fc1ccccc1CSc1n[nH]c(-c2ccccc2OCc2ccccc2)n1`, for which the EC50 was ≤ 2000 nM. Then `COc1ccccc1-c1cc(-c2cccc(C#N)c2)n[nH]1`, with 2510 to 3980 nM; and `COc1cc(OCc2ccccc2)ccc1-c1cc(-c2ccc(F)cc2)n[nH]1`, with ≤ 2000 nM; and `Cn1ccnc1COc1ccccc1-c1cc(-c2ccc(F)cc2)n[nH]1`, with ≤ 2000 nM. `c1ccc(-c2cc(-c3cccc4c3OCC4)[nH]n2)cc1`: the EC50 was in the range of 2510 to 3980 nM. Then `COc1ccccc1-c1cc(-c2cccc(NC(C)=O)c2)n[nH]1`, with ≥ 5010 nM.

With `COc1ccccc1-c1nc(SCC(=O)c2ccc(O)c(O)c2)n[nH]1`, the EC50 lay within 2510 to 3980 nM. Then `COc1ccccc1-c1nc(SCc2ccccc2F)n[nH]1`, with 2510 to 3980 nM. Take `FC(F)(F)COc1ccc(OCC(F)(F)F)c(-c2ccn[nH]2)c1`: the EC50 is ≤ 2000 nM. Then `COc1ccccc1-c1nc(SCC(=O)N2CCOCC2)n[nH]1`, with ≤ 2000 nM; and `COc1ccccc1-c1nnc(SCC(=O)Nc2ccccc2[N+](=O)[O-])[nH]1`, with ≤ 2000 nM; and `COc1ccccc1-c1cc(OCc2ccccc2F)n[nH]1`, with ≥ 5010 nM. Take `COc1ccccc1-c1cc(-c2ccccc2)n[nH]1`: the EC50 is 2510 to 3980 nM. Then `Fc1ccccc1COc1cc(-c2cccc3c2OCC3)[nH]n1`, with ≥ 5010 nM; and `COc1ccccc1-c1cc(-c2ccc(C#N)cc2)n[nH]1`, with 2510 to 3980 nM; and `c1ccc(-c2cc(-c3ccccc3OCc3ccccn3)[nH]n2)cc1`, with 2510 to 3980 nM. Under `COc1ccc(F)cc1-c1cc(OCc2ccccc2F)n[nH]1` stands ≥ 5010 nM; under `COc1ccccc1-c1cc(-c2cccc(F)c2)[nH]n1`, ≥ 5010 nM. Consider `COc1ccc(F)cc1-c1cc(-c2cccc(F)c2)[nH]n1`, for which the EC50 is 2510 to 3980 nM.

Consider `Fc1ccc(-c2cc(-c3ccccc3Oc3ccccc3)[nH]n2)cc1`, for which the EC50 was 2510 to 3980 nM. Then `COc1ccccc1-c1cc(-c2ccc(F)cc2)n[nH]1`, with 2510 to 3980 nM.

For the compound `Fc1ccc(-c2cc(-c3cccc(Oc4ncccn4)c3)[nH]n2)cc1`, the EC50 is ≥ 5010 nM.

As to `Fc1ccc(-c2cc(-c3cccc(Oc4ccccc4)c3)[nH]n2)cc1`, the EC50 was ≤ 2000 nM. Under `CC1(C)Cc2cccc(-c3cc(-c4ccccc4)n[nH]3)c2O1` stands ≤ 2000 nM; under `Brc1cc2c(c(-c3cc(-c4ccccc4)n[nH]3)c1)OCC2`, ≥ 5010 nM.

Take `COc1ccccc1-c1cc(-c2cccc(N)c2)n[nH]1`: the EC50 fell in the range of 2510 to 3980 nM.

In the case of `COCCOc1cc(OCc2ccccc2)ccc1-c1cc(-c2ccccc2)n[nH]1`, the EC50 is ≤ 2000 nM. `COc1ccccc1-c1cc(-c2ccc(N3CCOCC3)nc2)n[nH]1`: the EC50 is ≥ 5010 nM.

With `c1ccc(COc2ccc(-c3cc(-c4ccccc4)n[nH]3)c(OCc3ccccn3)c2)cc1`, the EC50 was ≤ 2000 nM. Under `COc1ccccc1-c1cc(-c2cccc(NC(=O)c3ccccc3)c2)n[nH]1` stands 2510 to 3980 nM; under `COc1ccccc1-c1cc(-c2ccc(N(C)C)nc2)n[nH]1`, 2510 to 3980 nM. For `c1ccc(-c2cc(-c3ccccc3Oc3cccnc3)[nH]n2)cc1`, the EC50 fell in the range of 2510 to 3980 nM. Regarding `COc1cc([N+](=O)[O-])ccc1-c1cc(-c2ccccc2)n[nH]1`, the EC50 is ≤ 2000 nM. Then `COc1ccccc1-c1cc(-c2ccc(N)cc2)n[nH]1`, with ≥ 5010 nM. Then `COc1ccc(COc2ccc(-c3cc(-c4ccccc4)n[nH]3)c(OC)c2)cc1`, with 2510 to 3980 nM; and `COc1cc(NC(=O)c2ccccc2)ccc1-c1cc(-c2ccccc2)n[nH]1`, with ≤ 2000 nM. Under `COc1ccc(CNc2ccc(-c3cc(-c4ccccc4OC)[nH]n3)cn2)c(OC)c1` stands ≤ 2000 nM.

With `COc1ccccc1-c1cc(-c2ccccc2Cl)n[nH]1`, the EC50 lay in the range of 2510 to 3980 nM.

As for `COCCNc1ccc(-c2cc(-c3ccccc3OC)[nH]n2)cn1`, the EC50 was in the range of 2510 to 3980 nM. Then `Clc1cccc(Oc2ccccc2-c2cc(-c3cccnc3)n[nH]2)c1`, with 2510 to 3980 nM; and `COc1ccc(NCc2ccccc2)cc1-c1cc(-c2ccccc2)n[nH]1`, with ≥ 5010 nM.

As to `COc1cc(NCc2ccccc2)ccc1-c1cc(-c2ccccc2)n[nH]1`, the EC50 lay in the range of 2510 to 3980 nM.

For the compound `COc1ccc(NC(=O)c2ccccc2)cc1-c1cc(-c2ccccc2)n[nH]1`, the EC50 lay in the range of 2510 to 3980 nM. For the compound `COc1ccc(NS(=O)(=O)c2ccccc2)cc1-c1cc(-c2ccccc2)n[nH]1`, the EC50 lay in the range of 2510 to 3980 nM. Under `COc1ccc(NC(=O)Cc2ccccc2)cc1-c1cc(-c2ccccc2)n[nH]1` stands ≤ 2000 nM; under `COc1ccc(NC(=O)c2cncs2)cc1-c1cc(-c2ccccc2)n[nH]1`, ≥ 5010 nM. Then `COc1ccc(NC(=O)c2ccoc2)cc1-c1cc(-c2ccccc2)n[nH]1`, with 2510 to 3980 nM. For the compound `COC[C@H](C)Oc1cc(OCc2ccccc2F)cc(-c2cc(OC)n[nH]2)c1`, the EC50 is ≥ 5010 nM. Then `COC[C@H](C)Oc1cc(OCc2ccc(S(C)(=O)=O)cc2)cc(-c2cc(OC)n[nH]2)c1`, with 2510 to 3980 nM; and `COC[C@H](C)Oc1cc(OCCc2ccsc2)cc(-c2cc(OC)n[nH]2)c1`, with ≤ 2000 nM; and `COc1cc(-c2ccc3ncn(CC4CCCCC4)c3c2)[nH]n1`, with ≥ 5010 nM.

On to `CS(=O)(=O)c1ccc(Oc2cc(OCc3ccccc3F)cc(-c3cc(O)n[nH]3)c2)cc1`, for which the EC50 was ≥ 5010 nM. `COc1cc(-c2cc(OCc3ccccc3F)cc(Oc3ccc(S(C)(=O)=O)cc3)c2)[nH]n1`: the EC50 is ≤ 2000 nM.

On to `COC[C@H](C)Oc1cc(Oc2ccc(S(C)(=O)=O)cc2)cc(-c2cc(OC)n[nH]2)c1`, for which the EC50 is ≤ 2000 nM. Then `COC[C@H](C)Oc1cc(Oc2ccc(S(C)(=O)=O)cc2)cc(-c2cc(OCC(=O)OC)n[nH]2)c1`, with 2510 to 3980 nM.

Turning to `Cc1cccnc1COc1cc(Oc2ccc(S(C)(=O)=O)cc2)cc(-c2cc(O)n[nH]2)c1`, the EC50 was ≥ 5010 nM. Under `COc1cc(-c2cc(OCc3ncccc3C)cc(Oc3ccc(S(C)(=O)=O)cc3)c2)[nH]n1` stands ≤ 2000 nM; under `COc1cc(-c2cc(Oc3ccc(S(C)(=O)=O)cc3)cc(OC3CCCC3)c2)[nH]n1`, ≤ 2000 nM. Under `Cc1ccccc1COc1cc(Oc2ccc(S(C)(=O)=O)cc2)cc(-c2cc(O)n[nH]2)c1` stands ≥ 5010 nM; under `COc1cc(-c2cc(OCc3ccccc3C)cc(Oc3ccc(S(C)(=O)=O)cc3)c2)[nH]n1`, ≤ 2000 nM.

Values taken from patent US20070197532A1, “GLUCOKINASE ACTIVATORS” (priority 2005, published 2007).
